Experimental data: US9598387B2 (Southern Research Institute, priority 2012, dated 2017)

What was measured:
[1] = target: T1, human D3 dopamine receptor (Homo sapiens (Human), UniProt P35462); assay: Radioligand binding (125I-IABN competition), D3; settings: for Ki: 125I-IABN competition, HEK cell membranes expressing human D3; for D2/D3 (D3 selectivity ratio, D2 Ki/D3 Ki): calculated D2 Ki/D3 Ki
Method: (§1) The affinities of the target compounds were determined using radioligand binding experiments. […] Competition curves were modeled for a single site. Data from competition dose-response curves were analyzed using Tablecurve program (Jandel). IC50 values were converted to equilibrium dissociation constants (Ki values) using the Cheng and Prusoff correction.

[2] = target: human D2-long dopamine receptor (Homo sapiens (Human), UniProt P14416); assay: Radioligand binding (125I-IABN competition), D2; settings: HEK cell membranes expressing human D2-long
Sequence of human D2-long dopamine receptor (P14416 whole entry): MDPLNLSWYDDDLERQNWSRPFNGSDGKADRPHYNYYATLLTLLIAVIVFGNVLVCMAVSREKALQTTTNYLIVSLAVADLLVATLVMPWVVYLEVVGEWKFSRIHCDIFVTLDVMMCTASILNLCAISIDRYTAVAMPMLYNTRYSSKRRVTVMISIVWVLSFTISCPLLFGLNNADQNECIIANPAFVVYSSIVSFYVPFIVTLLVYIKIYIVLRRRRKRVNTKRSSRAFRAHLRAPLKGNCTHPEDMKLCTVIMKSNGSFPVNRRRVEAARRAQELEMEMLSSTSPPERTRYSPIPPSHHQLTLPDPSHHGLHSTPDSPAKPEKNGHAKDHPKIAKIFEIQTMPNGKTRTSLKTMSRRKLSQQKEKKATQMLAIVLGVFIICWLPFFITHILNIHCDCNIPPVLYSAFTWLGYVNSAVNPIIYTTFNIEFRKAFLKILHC
Method: as §1

human D2 receptors = human D2 receptors (Homo sapiens (Human), UniProt P14416); assay: D2 Mitogenesis Functional Assay (3H-thymidine uptake, CHOp-D2 cells); assay type: cell-based; settings: for Emax at 10 µM: % maximum stimulation vs quinpirole (100%), read-out: D2 Agonist Emax; for Emax at 10 µM / D2 Antagonist Imax: at 10 μM; for D2 Antagonist Imax: inhibition of quinpirole stimulation of mitogenesis; for IC50: read-out: D2 Antagonist IC50
Sequence of human D2 receptors (P14416 whole entry): as above
Method: (§2) These assays are based on ^3H-thymidine uptake by cells that are proliferating.
CHO cells expressing human D2 receptors (CHOp-D2 cells) were maintained in alpha-MEM with 10% FCS, 0.05% pen-strep, and 200 μg/mL of G418. […] The cells were incubated at 37° C. in alpha-MEM with 10% FCS. After 48-72 hours, the cells were rinsed twice with serum-free alpha-MEM and incubated for 24 hours at 37° C. Serial dilutions of test compounds were made by the Biomek robotics system in serum-free alpha-MEM. In the functional assay for agonism, the medium was removed and replaced with 100 μL of test compound in serum-free alpha-MEM. In the antagonist assay, the serial dilution of the putative antagonist test compound was added in 90 μL (1.1× of final concentration) and 300 nM quinpirole (30 nM final) was added in […]. After another 24-hour incubation at 37° C., 0.25 μCi of [^3H]thymidine in alpha-MEM supplemented with 10% FCS was added to each well and the plates were further incubated for 2 hours at 37° C. The cells were trypsinized by addition of 10× trypsin solution (1% trypsin in calcium-magnesium-free phosphate-buffered saline) and the plates were filtered and counted as usual. Quinpirole was run as an internal control and dopamine was included for comparative purposes. Butaclamol was run as the standard antagonist.

D3R = D3R (Homo sapiens (Human), UniProt P35462); assay: D3 Mitogenesis Functional Assay (3H-thymidine uptake, CHOp-D3 cells); assay type: cell-based; settings: for Emax at 10 µM: % maximum stimulation vs quinpirole (100%), read-out: D3 Agonist Emax; for D3 Antagonist Imax: inhibition of quinpirole stimulation of mitogenesis; for IC50: read-out: D3 Antagonist IC50
Sequence of D3R (P35462 whole entry): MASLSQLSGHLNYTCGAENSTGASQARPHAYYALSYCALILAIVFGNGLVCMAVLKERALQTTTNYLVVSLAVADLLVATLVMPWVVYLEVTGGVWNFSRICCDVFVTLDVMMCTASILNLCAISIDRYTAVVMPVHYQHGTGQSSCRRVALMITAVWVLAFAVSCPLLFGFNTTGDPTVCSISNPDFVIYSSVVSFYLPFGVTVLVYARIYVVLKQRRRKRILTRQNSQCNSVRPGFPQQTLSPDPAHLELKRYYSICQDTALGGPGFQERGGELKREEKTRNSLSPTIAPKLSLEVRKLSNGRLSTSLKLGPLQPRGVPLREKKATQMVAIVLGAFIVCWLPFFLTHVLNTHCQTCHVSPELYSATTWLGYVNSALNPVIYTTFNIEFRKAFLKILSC
Method: as §2
CHO cells expressing human D3 receptors (CHOp-D3 cells) were maintained in alpha-MEM with 10% fetal bovine serum (FBS, Atlas Biologicals), 0.05% pen-strep, and 200 μg/ml of G418. […] The cells are incubated at 37° C. in alpha-MEM with 10% FBS. After 48-72 hours, the cells are rinsed twice with serum-free alpha-MEM and incubated for 24 hours at 37° C. Serial dilutions of test compounds were made by the Biomek robotics system in serum-free alpha-MEM. In the functional assay for agonism, the medium is removed and replaced with 100 μL of test compound in serum-free alpha-MEM. In the antagonist assay, the serial dilution of the putative antagonist test compound was added in 90 μL (1.1× of final concentration) and 300 nM quinpirole (30 nM final) was added in 10 uL. After another 16-hour incubation at 37° C., 0.25 μCi of [^3H]thymidine in alpha-MEM supplemented with 10% FBS was added to each well and the plates were further incubated for 2 hours at 37° C. The cells were trypsinized by addition of 10× trypsin solution (1% trypsin in calcium-magnesium-free phosphate-buffered saline) and the plates were filtered and counted as usual. Quinpirole was run as an internal control and dopamine was included for comparative purposes. Butaclamol was run as the standard antagonist. Data were analyzed using GraphPAD Prism and agonist potency was expressed as EC50 values or % stimulation and antagonist potency was expressed as IC50 values. In these assays, based on the % maximum stimulation as compared to the standard agonist quinpirole (100%) the compounds were classified into following categories: ≧90% full agonist; 70-90% partial to full agonist; <70% partial agonist; 0-20% potential antagonist.

[3] = target: human D2 dopamine receptors (Homo sapiens (Human), UniProt P14416); assay: Whole Cell Adenylyl Cyclase Assay, D2; assay type: cell-based; settings: inhibition of forskolin (100 μM) stimulated cAMP, normalized to quinpirole; compound conc ≥10× Ki (per compound); mean ± S.E.M.
Sequence of human D2 dopamine receptors (P14416 whole entry): as the sequence (P14416 whole entry) above
Method: (§3) The intrinsic activity of the compounds was evaluated by determining their ability to inhibit forskolin-dependent (100 μM) stimulation of adenylyl cyclase activity using a whole cell assay. A whole cell-cyclic AMP accumulation assay was performed with stably transfected HEK cells expressing human D2 or D3 dopamine receptors. This assay is an adaptation of an earlier published method (Su et al., Cyclic Nucleotide Res. 1976, 2, 257-285). Details regarding this method have been published (Chu, W. et al. Bioorg. Med. Chem. 2005, 13, 77-87; Taylor, M. et al. Synapse 2010, 64, 251-266). Confluent (60-80%) HEK cells transfected with recombinant D2-like dopamine receptors were grown in DMEM/10% fetal calf serum containing geneticin in […] flasks. The endogenous ATP pool is radioactively labeled by preincubating the cells in serum-free DMEM/25 mM Hepes medium containing 2 μCi/mL of [2,8-^3H]-adenine (20-Ci/mmol) in a 5% CO2 incubator at 37° C. for 75 min. The radioactive medium was removed by aspiration. Serum-free DMEM (5.6 mL) containing 25 mM HEPES, pH 7.4, and 0.1 mM of the phosphodiesterase inhibitor isobutylmethylxanthine was added to the flask. A […] aliquot of cells was removed and added to 50 μL of forskolin (100 μM) and 50 μL of test drug or quinpirole in DMEM-HEPES. The cells were incubated for 20 min at 37° C. (vortexing every 5 min). The reaction was terminated by the addition of 0.5 mL of 10% trichloroacetic acid (w/v) containing 1.0 mM unlabeled cyclic AMP as a recovery standard. Both the [^3H]-cyclic AMP and the [^3H]-ATP fractions were collected following separation using columns of Dowex AG-50W-X4 and alumina. The final yield of [^3H]-cyclic AMP is corrected for column recovery of unlabeled cyclic AMP determined spectrophotometrically (OD259). The results are reported as percent conversion of [^3H]-ATP into [^3H]-cyclic AMP. The values for the percent inhibition are reported as the actual percent of inhibition of the ^3H-cAMP accumulation relative to the assay performed in the absence of a test compound, minus basal activity. […] The percent maximum response is the value for the inhibition normalized to the value for the full agonist quinpirole.

[4] = target: T1, human D3 dopamine receptor; assay: Whole Cell Adenylyl Cyclase Assay, D3; assay type: cell-based; settings: inhibition of forskolin (100 μM) stimulated cAMP, normalized to quinpirole; compound conc ≥10× Ki (per compound); mean ± S.E.M.
Method: as §3

T1 sequence (P35462 whole entry): as the sequence (P35462 whole entry) above

| SMILES | Ki [1] [nM] | D2/D3 (D3 selectivity ratio, D2 Ki/D3 Ki) [1] | Ki [2] [nM] | Emax at 10 µM (human D2 receptors) [%] | D2 Antagonist Imax (human D2 receptors) [% at 10 μM] | IC50 (human D2 receptors) [nM] | Emax at 10 µM (D3R) [%] | D3 Antagonist Imax (D3R) [%] | IC50 (D3R) [nM] | D2 Cyclase % Inhibition Normalized [3] [%] | D3 Cyclase % Inhibition Normalized [4] [%] | EC50 (human D2 receptors; CHOp-D2 cells, stimulation of mitogenesis, read-out: D2 Agonist EC50) [nM] | EC50 (D3R; CHOp-D3 cells, stimulation of mitogenesis, read-out: D3 Agonist EC50) [nM] |
| --- | --- | --- | --- | --- | --- | --- | --- | --- | --- | --- | --- | --- | --- |
| O=C(NCCCCN1CCN(c2cccc(Cl)c2Cl)CC1)N1CCN(c2ccccc2)CC1 [Compound 3, N-(4-(4-(2,3-Dichlorophenyl)piperazin-1-yl)butyl)-4-phenylpiperazine-1-carboxamide] | 0.39 ± 0.1 | 54 | 21 ± 2.4 | < 20 | 91.0 | 14.6 ± 5.5 | < 20 | 93.1 | 3.43 ± 0.29 | 61.0 ± 4.5 | 66.4 ± 16.4 | – | – |
| N#Cc1cc(N2CCN(CCCCNC(=O)N3CCN(c4ccccc4)CC3)CC2)cc(C(F)(F)F)c1 [Compound 4, N-(4-(4-(3-Cyano-5-(trifluoromethyl)phenyl)piperazin-1-yl)butyl)-4-phenylpiperazine-1-carboxamide] | 4.1 ± 1 | 72 | 294 ± 59.6 | – | – | – | – | – | – | −9.2 ± 8.3 | 8.2 ± 4.2 | – | – |
| Cc1cc(N2CCN(CCCCNC(=O)N3CCN(c4ccccc4)CC3)CC2)nc(C(F)(F)F)n1 [Compound 7, N-(4-(4-(6-Methyl-2-(trifluoromethyl)pyrimidin-4-yl)piperazin-1-yl)butyl)-4-phenylpiperazine-1-carboxamide] | 41.5 ± 9.1 | 93 | 3880 ± 1220 | – | – | – | – | – | – | 30.4 ± 14.6 | 42.4 ± 8.9 | – | – |
| O=C(NCCCCN1CCN(c2ccnc3ccccc23)CC1)N1CCN(c2ccccc2)CC1 [Compound 11, 4-Phenyl-N-(4-(4-(quinolin-4-yl)piperazin-1-yl)butyl)piperazine-1-carboxamide] | 9.8 ± 1.2 | 119 | 1170 ± 128 | – | – | – | – | – | – | 24.4 ± 3.8 | 43.1 ± 9.4 | – | – |
| CC(C)(C)c1nc(N2CCN(CCCCNC(=O)N3CCN(c4cccc(C#N)c4)CC3)CC2)cc(C(F)(F)F)n1 [Compound 26, N-(4-(4-(2-(tert-Butyl)-6-(trifluoromethyl)pyrimidin-4-yl)piperazin-1-yl)butyl)-4-(3-cyanophenyl)piperazine-1-carboxamide] | 8.7 ± 2.2 | 81 | 707 ± 96.2 | – | – | – | – | – | – | 34.0 ± 9.1 | 20.0 ± 6.2 | – | – |
| CC(C)(C)c1nc(N2CCN(CCCCNC(=O)N3CCN(c4ccccn4)CC3)CC2)cc(C(F)(F)F)n1 [Compound 29, N-(4-(4-(2-(tert-Butyl)-6-(trifluoromethyl)pyrimidin-4-yl)piperazin-1-yl)butyl)-4-(pyridin-2-yl)piperazine-1-carboxamide] | 8 ± 1.6 | 92 | 740 ± 98.3 | < 1 | 99.9 | 232 ± 61 | < 5 | 83.8 | 54.7 ± 9.4 | 21.8 ± 6.6 | 60.9 ± 4.0 | > 10000 | > 10000 |
| CC(C)(C)c1nc(N2CCN(CCCCNC(=O)N3CCN(c4cccnc4)CC3)CC2)cc(C(F)(F)F)n1 [Compound 30, N-(4-(4-(2-(tert-Butyl)-6-(trifluoromethyl)pyrimidin-4-yl)piperazin-1-yl)butyl)-4-(pyridin-3-yl)piperazine-1-carboxamide] | 5.9 ± 1.1 | 77 | 455 ± 86 | – | – | – | – | – | – | 6.1 ± 7.5 | 9.1 ± 5.8 | – | – |
| CC(C)(C)c1nc(N2CCN(CCCCNC(=O)N3Cc4ccccc4C3)CC2)cc(C(F)(F)F)n1 [Compound 39, N-(4-(4-(2-(tert-Butyl)-6-(trifluoromethyl)pyrimidin-4-yl)piperazin-1-yl)butyl)isoindoline-2-carboxamide] | 12.2 ± 2 | 64 | 778 ± 29.5 | – | – | – | – | – | – | −24.0 ± 7.0 | 19.8 ± 6.7 | – | – |
| Cc1cc(N2CCN(CCCCNC(=O)N3CCC(n4c(=O)[nH]c5ccccc54)CC3)CC2)nc(C(C)(C)C)n1 [Compound 52, N-(4-(4-(2-(tert-Butyl)-6-methylpyrimidin-4-yl)piperazin-1-yl)butyl)-4-(2-oxo-2,3-dihydro-1H-benzo[d]imidazol-1-yl)piperidine-1-carboxamide] | 7.3 ± 1.6 | 93 | 680 ± 135 | – | – | – | – | – | – | −5.9 ± 5.4 | 11.6 ± 3.1 | – | – |
